Where two headings read alike, the source gives them in different places.
How the values were obtained:
HUVEC [1] = test: Fatty acid metabolism and malonyl CoA in HUVEC after 24 hr in 30 mM glucose; assay type: cell-based, human; details: 30 mM glucose + 1 mM AICAR
Method: Fatty acid oxidation was measured over 2 hours after 24 hr prelabeling with ^3H-palmitate. Data are means ±SD (n=4−6). *P<0.05; vs 5 mM glucose. † p<0.05; vs 30 mM glucose;
(§1) We have previously shown that incubation of HUVEC for 2 hr in media containing 30 mM vs 5 mM glucose causes no changes in AMPK activity, malonyl CoA concentration, fatty acid oxidation, or lactate release. […] In addition, it impaired Akt phosphorylation in the presence of insulin (FIG. 11). […] AMPK activity tended to be higher after 24 h of incubation with 30 mM glucose; however, whether it was inappropriately low, in light of the decrease in ATP content (and presumably an increased AMP/ATP ratio), was not ascertained.

human retinal pericytes = test: Ceramide and DAG levels by diacylglycerol kinase method in pericytes; assay type: cell-based
Method: Apoptosis was induced by incubating the cells with a medium containing 0-0.5 mM palmitic acid for 3 days. Apoptotic cells were determined by conventional TUNEL staining. Ceramide and DAG levels were measured the by diacylgycerol kinase method using 32P-ATP.

HUVEC [2] = assay type: cell-based, human
Method: As previously mentioned, AMPK increases fatty acid oxidation in both liver and skeletal muscle by phosphorylation and inhibition of acetyl CoA carboxylase. We wanted to test if this effect of AMPK is also present in endothelial cells. […] A significant decrease was seen within the first 30 minutes of incubation (FIG. 3). ACC activity went down from 163.1±27.0 pmol/min/mg protein at 0 minutes to 61.1±1.1 at 30 minutes (P=0.004), 73.0 ±12.4 at 60 minutes and 51.2±5.0 at 120 minutes (P=0.015). As previously described, ACC activation increases malonyl CoA levels and this in turn inhibits CPT1, the enzyme responsible for the uptake of long chain fatty acyl CoA into the mitochondria where they are oxidized. […] Fatty acid oxidation was measured by the formation of titrated water (^3H2O) in cells incubated with ^3H-palmitate. A significant increase was seen only after a 2-hour incubation (P=0.002). […] (See Table 1A, FIG. 6.) Glucose and fatty acid oxidation, glucose uptake and lactate and pyruvate release were determined in the absence and presence of […] carnitine.
To see if this also occurred in endothelial cells, glucose uptake was measured (Table 1).
In addition, lactate and pyruvate production were measured to see if the rate of glycolysis had changed.
This was not attributable to an increase in glucose oxidation. Glucose oxidation was measured by determining labeled CO2 production when the cells are incubated with ^14C-(U) glucose.
As a result their rate of oxidation can be greatly underestimated unless the tissue is prelabeled with fatty acid. […] Thus, when the HUVEC were pre-incubated with radioactive palmitate for 24 hours prior to ^14CO2 collection (to label the intracellular lipid pools), the measured rate of fatty acid oxidation was increased by 5 fold during the second hour of a two-hour incubation with radioactive palmitate added to the medium. […] (See Table 1A.)

Na+/K+ pump = test: Radioactive rubidium uptake with and without ouabain in HUVEC; assay type: cell-based, human; details: 2 mM AICAR for 2 hours
Method: One of the major ATP users, the Na^+/K^+pump, was investigated. The activity of this pump was tested by measuring the uptake of radioactive rubidium in the absence and presence of ouabain, an Na^+/K^+pump inhibitor. The difference in uptake, which is referred to as ouabain-sensitive Rb^+uptake, is the Na^+/K^+pump activity. […] When the ouabain sensitive component was calculated, no ,difference was seen between the two incubations, (2.11±0.9 and 3.3±0.9 pmol/min/mg protein), thus leading us to believe that no change in Na^+/K^+pump activity had occurred. […] The AMPK activity remained high with a longer incubation time up to 120 minutes.

Akt = Akt phosphorylation in the presence of insulin in HUVEC; assay type: cell-based, human; details: 30 mM glucose + 1 mM AICAR, 24 h
Method: Results are means±SE (n=4) *p<0.05 vs 5 mM glucose. † p<0.05 vs 30 mM glucose;
as §1

high-fat fed (HFF) rats [3] = test: Acute effects of a single AICAR injection in high-fat fed (HFF) rats; assay type: in vivo, rat
Method: Plasma parameters: This experiment was performed on HFF rats under conscious conditions following 5-7 hours of fasting. After catheters were connected to blood sampling syringes, the animals were allowed to rest for 40-50 min. Two blood samples were taken 20 min. apart, constituting the basal samples (time 0). […] Blood samples were collected at 30, 60, 90 and 120 min. after the injection. After the last sample was taken, the animals were euthanized. […] Tissue parameters: The glycogen and triglyceride content of two types of skeletal muscle and liver at the end of the experiment were determined (Table 9, FIG. 27).

high-fat fed (HFF) rats [4] = test: Euglycemic hyperinsulinemic clamp in HFF rats 24 h after AICAR injection; assay type: in vivo, rat
Method: They were then returned to their cages and given a high-fat meal. […] To avoid the possible effects of a reduced caloric intake, the HFF-Con animals were pair-fed with HFF-AIC rats. 24 h after the injection, and after a 5-7 h fasting period, the rats were submitted to an euglycemic hyperinsulinemic clamp, to determine the whole body insulin sensitivity.

[5] = 1 mM AICAR vs 0.5 mM palmitate alone
[6] = HFF rats, 250 mg/kg s.c., vs HFF-Con
[7] = clamp 24 h after 250 mg/kg AICAR

In the case of `NC(=O)c1ncn([C@@H]2O[C@H](CO)[C@@H](O)[C@H]2O)c1N` [AICAR, 5-aminoimidizole-4-carboxamide riboside], the “concentration of malonyl-CoA” value (HUVEC [1]) is reported as “even lower than that in cells incubated with 5 mM glucose”, the “diminished fatty acid oxidation caused by 30 mM glucose” value (HUVEC [1]) is reported as “completely prevented” and the “increased incorporation of radioactive glucose and palmitate into diacylglycerol caused by 30 mM glucose” value (HUVEC [1]) is reported as “completely prevented”. For the same compound, the DAG levels (human retinal pericytes; 0.5 mM palmitate + 1 mM AICAR) was 24±5 nmol/mg protein, the ceramide levels (human retinal pericytes; 0.5 mM palmitate + 1 mM AICAR) was 3.8±1 nmol/mg protein and the “decrease in DAG levels” value (human retinal pericytes; [5]) was 50%. For the same compound, the “decrease in ceramide levels” value (human retinal pericytes; [5]) was 60%, the fatty acid oxidation (HUVEC [2]; 50 pM carnitine added, 3H-palmitate, 2-hour incubation) was “increased significantly” and the “glucose oxidation (labeled CO2 production)” value (HUVEC [2]; 14C-(U) glucose, after two hours) was “increased significantly”. The lactate production (HUVEC [2]; AICAR incubation, 2 hours) was “even more obvious decrease”, the pyruvate production (HUVEC [2]; AICAR incubation, 2 hours) was “slight, but significant decrease” and the “ATP generated accounted for by fatty acid oxidation” value (HUVEC [2]; HUVEC incubated 2 hrs in 6 mM glucose with AICAR) was about 40%. For the same compound, the fatty acid oxidation (HUVEC [2]; absence of carnitine, 2 hours) was “did not show any changes”, the “levels of ATP measured by bioluminescence” value (HUVEC [2]; after AICAR incubation) was “rose” and the glucose uptake (HUVEC [2]; during the AICAR incubation) was “decreased”. For the same compound, the “calculated rate of ATP generation” value (HUVEC [2]; no prelabeling (Table 1)) was “significantly diminished”, the “ATP generated accounted for by fatty acid oxidation” value (HUVEC [2]; second hour of two-hour incubation, 24 hours prelabeling with palmitate, with AICAR) was 60% and the “ouabain-sensitive Rb+ uptake (Na+/K+ pump activity)” value (Na+/K+ pump) was 3.3±0.9 pmol/min/mg protein. The total rubidium uptake (Na+/K+ pump) was 6.0 ±0.3 pmol/min/mg protein, the “impaired Akt phosphorylation in the presence of insulin caused by 30 mM glucose” value (Akt) was “completely prevented” and the “changes in tissue triglyceride content” value (high-fat fed (HFF) rats [3]; 2 h after the injection) was “not significant”. For the same compound, the “increase in glycogen content in white muscle” value (high-fat fed (HFF) rats [3]; 2 h after the injection) was 16%, the “reduction in liver glycogen” value (high-fat fed (HFF) rats [3]; 2 h after the injection) was 52% and the “duration of decrease in plasma glucose” value (high-fat fed (HFF) rats [3]; HFF rats, 250 mg/kg s.c.) was “at least 60 minutes”. The “plasma FFA” value (high-fat fed (HFF) rats [3]; HFF rats, 250 mg/kg s.c.) was “remained unchanged”, the “time to decrease in plasma glucose” value (high-fat fed (HFF) rats [3]; HFF rats, 250 mg/kg s.c.) was at most 30 min and the plasma glucose (high-fat fed (HFF) rats [3]; HFF rats, 250 mg/kg s.c., 30-120 min post-injection) was “decrease”. For the same compound, the plasma glycerol (high-fat fed (HFF) rats [3]; [6]) was “increase”, the plasma triglyceride levels (high-fat fed (HFF) rats [3]; [6]) was “decrease” and the plasma insulin (high-fat fed (HFF) rats [3]; HFF rats, 250 mg/kg s.c., vs saline) was “decrease”. For the same compound, the “levels of muscle triglycerides or long chain fatty acyl CoA (LCFACoA)” value (high-fat fed (HFF) rats [4]; after clamp) was “no significant change”, the “decrease in liver malonyl-CoA” value (high-fat fed (HFF) rats [4]; after clamp, vs HFF-Con) was 21% and the “reduction of liver triglycerides accumulation” value (high-fat fed (HFF) rats [4]; after clamp, vs HFF-Con) was 33%. For the same compound, the food eaten overnight (high-fat fed (HFF) rats [4]; after single 250 mg/kg s.c. injection, high-fat meal) was “minor reduction”, the “reduction of malonyl-CoA in red muscle” value (high-fat fed (HFF) rats [4]; after the clamp, vs HFF-Con) was 44% and the “basal plasma glucose (hyperglycemia caused by high-fat feeding)” value (high-fat fed (HFF) rats [4]; basal state, 24 h after AICAR) was “decreased the hyperglycemia”. The “other basal plasma parameters (insulin, FFA, triglycerides)” value (high-fat fed (HFF) rats [4]; basal state, vs HFF-Con) was “did not alter”, the Rd (high-fat fed (HFF) rats [4]; [7]) was “slight but not significant increase” and the “increase in glucose infusion rate (GIR)” value (high-fat fed (HFF) rats [4]; [7]) was 50%. For the same compound, the HGO under insulin (high-fat fed (HFF) rats [4]; clamp 24 h after 250 mg/kg AICAR, p>0.05 vs. Chow) was “close to the normal value”, the “increase in Rg' (rate of glucose uptake) in white muscle” value (high-fat fed (HFF) rats [4]; clamp 24 h after AICAR) was 79% and the “Rg' in red muscle” value (high-fat fed (HFF) rats [4]; clamp 24 h after AICAR, p=0.085) was “tendency of increased”. For the same compound, the “insulin-stimulated glucose incorporation into glycogen” value (high-fat fed (HFF) rats [4]; white and red muscle) was “significantly increased”.

Source: US20030212014A1 (priority 2000, published 2003)
